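In this assay, cells in 96-well plates receive the compound at five concentrations for 48 hours. Endpoints are linearly interpolated between the surrounding concentrations. Here, GI50 denotes the concentration required for 50% inhibition of growth. TGI: concentration producing complete growth inhibition.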
Assays:
Experiment in all cases: NCI tumour cell line growth inhibition, 48 h
SK-MEL-2 melanoma = tested on: SK-MEL-2 melanoma
K-562 leukemia = tested on: K-562 leukemia
CCRF-CEM leukemia = tested on: CCRF-CEM leukemia
HCT-116 colon = tested on: HCT-116 colon
HOP-92 NSCLC = tested on: HOP-92 NSCLC
SK-MEL-28 melanoma = tested on: SK-MEL-28 melanoma
HT29 colon = tested on: HT29 colon
HCT-15 colon = tested on: HCT-15 colon
OVCAR-4 ovarian = tested on: OVCAR-4 ovarian
NCI-H460 lung = tested on: NCI-H460 lung

| SMILES | TGI (SK-MEL-2 melanoma) [µM] | TGI (K-562 leukemia) [µM] | TGI (CCRF-CEM leukemia) [µM] | TGI (HCT-116 colon) [µM] | TGI (HOP-92 NSCLC) [µM] | TGI (SK-MEL-28 melanoma) [µM] | TGI (HT29 colon) [µM] | TGI (HCT-15 colon) [µM] | TGI (OVCAR-4 ovarian) [µM] | TGI (NCI-H460 lung) [µM] | GI50 (SK-MEL-2 melanoma) [µM] | GI50 (NCI-H460 lung) [µM] | GI50 (K-562 leukemia) [µM] | GI50 (CCRF-CEM leukemia) [µM] | GI50 (HCT-116 colon) [µM] | GI50 (SK-MEL-28 melanoma) [µM] | GI50 (HT29 colon) [µM] | GI50 (HCT-15 colon) [µM] | GI50 (OVCAR-4 ovarian) [µM] | GI50 (HOP-92 NSCLC) [µM] |
| --- | --- | --- | --- | --- | --- | --- | --- | --- | --- | --- | --- | --- | --- | --- | --- | --- | --- | --- | --- | --- |
| Cc1cc(N(CCC#N)CCC#N)ccc1/C=C1/N=C(c2ccccc2)N(N)C1=O | > 100 | > 100 | > 100 | > 100 | 99.9 | > 100 | > 100 | > 100 | > 100 | – | – | – | – | – | – | – | – | – | – | – |
| CC1(C)OC2C(=O)C=C(COCc3ccccc3)C2O1 (stereo not drawn) | > 100 | > 100 | > 100 | 54.3 | – | 95.4 | > 100 | > 100 | – | – | – | – | – | – | – | – | – | – | – | – |
| CNS(=O)(=O)NNS(=O)(=O)c1ccc(Cl)cc1 | > 100 | > 100 | > 100 | > 100 | > 100 | > 100 | > 100 | – | > 100 | > 100 | – | – | – | – | – | – | – | – | – | – |
| COC12c3ccccc3-c3ccccc3C1[C@H]1C(=O)OC(=O)[C@H]12 (stereo partly drawn) | > 10 | > 10 | > 10 | – | > 10 | > 10 | > 10 | > 10 | > 10 | > 10 | – | – | – | – | – | – | – | – | – | – |
| COc1cc(/C=C/[N+](=O)[O-])cc(Br)c1OC | 5.71 | > 100 | 44.5 | 3.22 | – | 6.14 | 3.57 | 8.98 | 20.8 | 11.4 | 2.67 | 3.48 | 2.21 | 6.65 | 1.78 | 2.39 | 1.81 | 2.68 | 7.65 | – |
| CC(=O)Oc1ccccc1C(=O)/C=C/c1cccc([N+](=O)[O-])c1 | 29.4 | > 100 | > 100 | 3.07 | 22.5 | 21.2 | 4.92 | – | 23.1 | 9.4 | 15.1 | 2.4 | 3.14 | 3.06 | 1.66 | 5.56 | 2.36 | – | 5.95 | 7.91 |
| Cc1ccc(NC(=O)c2ccccc2C(=O)O)cc1C | > 100 | > 100 | – | > 100 | > 100 | > 100 | > 100 | > 100 | > 100 | > 100 | – | – | – | – | – | – | – | – | – | – |
| Cc1c(C2=C(c3cn(C)c4ccccc34)C(=O)NC2=O)c2ccccc2n1C | 24.3 | > 25 | > 25 | > 25 | – | > 25 | > 25 | > 25 | > 25 | > 25 | 1.93 | 1.29 | 1.21 | 1.47 | 1.38 | > 22.3 | 1.12 | 1.3 | 9.22 | – |
| CCCCCCN(N)C(=O)CC#N | – | > 100 | > 100 | > 100 | > 100 | > 100 | > 100 | > 100 | > 100 | > 100 | – | – | – | – | – | – | – | – | – | – |
| BrCc1ccc(CBr)cc1 | – | > 20.6 | – | – | 53.7 | 23.3 | > 23.9 | > 75.2 | 22.4 | 17.4 | – | 4.84 | 7.1 | 2.07 | 5.4 | 8.29 | 4.38 | 5.44 | 8.96 | 18.7 |
| CN(C)CCC(/C=C/c1ccccc1)=N\Nc1ccc(Cl)cc1Cl | 26.7 | 28.7 | 25.8 | 28.8 | – | 27.3 | 27.2 | 24.2 | 29.7 | 28.1 | – | – | – | – | – | – | – | – | – | – |
| c1ccc(P(=Nc2ccccc2N=P(c2ccccc2)(c2ccccc2)c2ccccc2)(c2ccccc2)c2ccccc2)cc1 | – | 11.2 | 13 | 9.64 | 0.573 | > 100 | 11.6 | – | 14.9 | 11 | – | – | – | – | – | – | – | – | – | – |
| COc1cc(-c2cc(-c3cc([N+](=O)[O-])c(/C=N/NC(=O)c4ccncc4)o3)ccc2OC)ccc1C | > 100 | > 100 | – | – | > 100 | > 100 | > 100 | – | > 100 | – | – | – | – | – | – | – | – | – | – | – |
| CC1=CC(=O)C(O)C2(C)C1CC(O)C13COC4(C)C(OC(=O)C41)C(O)C23 (stereo not drawn) | 29.5 | > 100 | > 100 | 19.3 | – | > 100 | > 100 | 23.4 | > 100 | 62.7 | 6.36 | 5.2 | 5.48 | 5.79 | 4.11 | 7.32 | 9.02 | 4.47 | 15 | – |
| CC1(C)C2CCC13CS(=O)(=O)N1O[C@]13C(=O)O2 (stereo partly drawn) | > 100 | > 100 | – | > 100 | > 100 | > 100 | > 100 | > 100 | > 100 | > 100 | – | – | – | – | – | – | – | – | – | – |
| CN1CCN(Cc2ccc(NC(=O)c3[nH]ncc3Nc3ncnc4sc5c(c34)CCCC5)cc2)CC1 | 3.22 | 1.14 | 0.823 | – | 4.81 | 2.08 | 1.92 | 1.28 | 1.84 | 1.05 | 0.665 | 0.136 | 0.198 | 0.179 | – | 0.512 | 0.234 | 0.197 | 0.327 | 1.48 |
| Cc1nc2ccccc2c(/C=C/c2ccc(Br)cc2)c1C(=O)/C=C/c1ccccc1 | 3.46 | – | > 100 | 2.28 | – | 3.4 | 6.58 | 3.71 | 4.49 | – | 1.75 | – | – | 1.48 | 0.601 | 1.89 | 1.48 | 1.31 | 1.69 | – |
| O=c1[nH]cnc2c(C3NC(CO)C(O)C3O)c[nH]c12 (stereo not drawn) | – | – | – | > 100 | > 100 | > 100 | > 100 | > 100 | > 100 | > 100 | – | > 100 | – | – | > 100 | > 100 | > 100 | > 100 | > 100 | > 100 |

Reference: PubChem BioAssay (NCI)
